Laboratory results taken from patent US4454155A, “Pharmaceutical compositions containing a mono-substituted derivative of 4-phenyl-4-oxobuten-2-oic acid, and methods of using them in treating gastric and gastroduodenal ailments” (Roussel UCLAF, priority 1981, dated 1984).

Key:
[1] = system: total acidity of the gastric juice; assay: Gastric anti-secretory activity (Shay, pylorus-ligated rats); format: in vivo, rat; settings: 10 mg/kg, intraduodenally, male rats, 3 hours
Experimental: (1) Determination of the gastric anti-secretory activity
The technique used is described by H. Shay et al in Gastroenterology 5, 43 (1945).
Male rats were used, each having a weight of about 200 g (ten animals per lot), which had been without food for 48 hours but were allowed 8% glucose solution ad libitum. After the rats were slightly anesthetized with ether, the pylorus of each was ligated. At the end of the operation, different doses of the product to be tested, or in the case of the control animals a 0.5% carboxymethyl cellulose solution, were administered intraduodenally, whereupon the abdominal incision was sutured.
Three hours later, the animals were sacrificed and their stomachs removed after ligating the esophagus. The gastric juice was removed and centrifuged. The volume of gastric juice obtained was then measured and the total acidity of the gastric juice obtained was established by titrating a 100 μL sample of gastric juice to a pH of 7 with 1/10 N Sodium hydroxide aqueous solution. The total acidity was determined.
The percentage of variation of total acidity between the results from test animals and results from control animals were calculated.

[2] = system: ulcers in the stomachs of rats; assay: Anti-ulcer activity, stress ulcer (stress and cold); format: in vivo, rat; settings: 10 mg/kg, by esophageal tube, female rats, stress at 8° C. for two hours
Experimental: (2) Determination of the anti-ulcer activity
The technique consists in inducing ulcers in the stomachs of rats by stress (stress and cold). The technique used is described by E. C. Senay and R. J. Levine, Proc. Soc. Ex. Biol. 124, 1221 (1967).
Female rats of 150 g (5 animals per lot) were used which had fasted for 48 hours with water ad libitum and glucose solution for 8 hours. The animals were given the test product, or a 0.5% solution of carboxymethyl cellulose in the case of the control animals, by esophageal tube. Two hours later, the animals were wrapped in a jacket of netting. Their paws were bound and the entire unit was placed in a refrigerator at 8° C. for two hours. The rats were freed and killed with ether. Their stomachs were removed, opened along the greater curvature and examined with a binocular magnifier. The seriousness of the lesions was rated from 0 to 3 for each stomach.
The average intensity of the ulcerations was calculated for each lot of rats. The difference in the degree of ulceration between test animals and control animals was determined and calculated as a percentage.

Acute toxicity = settings: mouse, in vivo, po; per os, mice
Experimental: (3) Determination of the acute toxicity
The LD50 was evaluated after administration of the product per os in mice.

| Compound | Anti-secretory activity (% variation as compared with the controls), Acid Concentration [1] [%] | Anti-ulcer activity (% variation as compared with the controls), Ulceration [2] [%] | LD50 (Acute toxicity) [mg/kg] |
| --- | --- | --- | --- |
| O=C(O)C=CC(=O)c1ccccc1O [Example 1, 4-(2-hydroxyphenyl)-4-oxobuten-2-oic acid] | -65 | -35 | 350 |
| COc1ccc(C(=O)C=CC(=O)O)cc1 [Example 2, 4-(4-methyoxyphenyl)-4-oxobuten-2-oic acid] | -66 | -73 | 500 |
